PubChem BioAssay AID200 (DTP/NCI, 2004)
“And” between values parts separate entries of the source, which are not always exact repeats. Equal values may be shown once. Toxic doses and inconclusive results are not listed. Where a SMILES comes first, the peptide text is derived from it. The star is where a group is joined. Cbz = O=C(OCc1ccccc1)*

Tested on: B6C3F1 mice, B16 melanoma ip, median survival T/C
Experiment: NCI In Vivo Anticancer Drug Screen. Data for tumor model B16 Melanoma (intraperitoneal) in B6C3F1 mice
Conditions: endpoint: median survival time, higher = longer survival
Procedure, shortened: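 Mice bearing transplanted tumor were dosed with compound or vehicle, and survival was recorded. Activity is expressed as the treated-group measurement (T) divided by the vehicle control measurement (C).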

[1] = dose: 12.5 mg/kg/injection, schedule: Q01DX009 (ip), vehicle: Klucel (hydroxypropylcellulose) (HPC)
[2] = dose: 25.0 mg/kg/injection, schedule: Q01DX009 (ip), vehicle: Klucel (hydroxypropylcellulose) (HPC)
[3] = dose: 50.0 mg/kg/injection, schedule: Q01DX009 (ip), vehicle: Klucel (hydroxypropylcellulose) (HPC)
[4] = dose: 100.0 mg/kg/injection, schedule: Q01DX009 (ip), vehicle: Klucel (hydroxypropylcellulose) (HPC)
[5] = dose: 50.0 mg/kg/injection, schedule: Q01DX009 (ip), vehicle: saline with Tween-80
[6] = dose: 100.0 mg/kg/injection, schedule: Q01DX009 (ip), vehicle: saline with Tween-80
[7] = dose: 6.25 mg/kg/injection, schedule: Q01DX009 (ip), vehicle: saline
[8] = dose: 12.5 mg/kg/injection, schedule: Q01DX009 (ip), vehicle: saline
[9] = dose: 25.0 mg/kg/injection, schedule: Q01DX009 (ip), vehicle: saline
[10] = dose: 50.0 mg/kg/injection, schedule: Q01DX009 (ip), vehicle: saline
[11] = dose: 200.0 mg/kg/injection, schedule: Q01DX009 (ip), vehicle: saline
[12] = dose: 100.0 mg/kg/injection, schedule: Q01DX009 (ip), vehicle: saline
[13] = dose: 200.0 mg/kg/injection, schedule: Q01DX009 (ip), vehicle: Klucel (hydroxypropylcellulose) (HPC)
[14] = dose: 400.0 mg/kg/injection, schedule: Q01DX009 (ip), vehicle: Klucel (hydroxypropylcellulose) (HPC)
[15] = dose: 12.5 mg/kg/injection, schedule: Q01DX009 (ip), vehicle: saline with Tween-80
[16] = dose: 6.25 mg/kg/injection, schedule: Q01DX009 (ip), vehicle: water

Structure (SMILES): Cc1cc(N/N=C/c2ccccn2)nc2ccccc12
- T/C (dose: 6.25 mg/kg/injection, schedule: Q01DX009 (ip), vehicle: Klucel (hydroxypropylcellulose) (HPC)): 96 % of control
- T/C [1]: 94 % of control and 99 % of control
- T/C [2]: 97 % of control and 98 % of control
- T/C [3]: 93 % of control and 101 % of control
- T/C [4]: 103 % of control and 106 % of control

Structure (SMILES): COc1ccc(CC2C(=O)NC(C)C(=O)N(C)C3Cc4ccc(cc4)Oc4cc(ccc4O)CC(C(=O)NC(C)C(=O)NC(C)C(=O)N2C)N(C)C3=O)cc1 (centres undefined)
- T/C (dose: 0.25 mg/kg/injection, schedule: Q01DX009 (ip), vehicle: saline with Tween-80): 158 % of control
- T/C (dose: 0.5 mg/kg/injection, schedule: Q01DX005 (ip), vehicle: saline with Tween-80): 110 % of control
- T/C (dose: 0.5 mg/kg/injection, schedule: Q01DX005 (iv), vehicle: saline with Tween-80): 102 % of control and 104 % of control
- T/C (dose: 0.5 mg/kg/injection, schedule: Q01DX009 (ip), vehicle: saline + Tween-80 + alcohol): 118 % of control
- T/C (dose: 0.5 mg/kg/injection, schedule: Q01DX009 (ip), vehicle: saline with Tween-80): 162 % of control and 166 % of control
- T/C (dose: 1.0 mg/kg/injection, schedule: Q01DX005 (ip), vehicle: saline with Tween-80): 124 % of control
- T/C (dose: 1.0 mg/kg/injection, schedule: Q01DX005 (iv), vehicle: saline with Tween-80): 109 % of control and 105 % of control
- T/C (dose: 1.0 mg/kg/injection, schedule: Q01DX009 (ip), vehicle: saline + Tween-80 + alcohol): 117 % of control
- T/C (dose: 1.0 mg/kg/injection, schedule: Q01DX009 (ip), vehicle: saline with Tween-80): 91 % of control
- T/C (dose: 2.0 mg/kg/injection, schedule: Q01DX005 (iv), vehicle: saline with Tween-80): 122 % of control and 107 % of control
- T/C (dose: 2.0 mg/kg/injection, schedule: Q01DX009 (ip), vehicle: saline with Tween-80): 122 % of control
- T/C (dose: 4.0 mg/kg/injection, schedule: Q01DX005 (ip), vehicle: saline with Tween-80): 122 % of control
- T/C (dose: 4.0 mg/kg/injection, schedule: Q01DX005 (iv), vehicle: saline with Tween-80): 109 % of control and 111 % of control
- T/C (dose: 4.0 mg/kg/injection, schedule: Q01DX009 (ip), vehicle: other): 150 % of control
- T/C (dose: 4.0 mg/kg/injection, schedule: Q01DX009 (ip), vehicle: saline with Tween-80): 161 % of control
- T/C (dose: 8.0 mg/kg/injection, schedule: Q01DX005 (iv), vehicle: saline with Tween-80): 110 % of control and 116 % of control
- T/C (dose: 8.0 mg/kg/injection, schedule: Q01DX009 (ip), vehicle: other): 159 % of control

Structure (SMILES): Cc1ccc(C)c2c1CCC2C (centres undefined)
- T/C [5]: 93 % of control
- T/C [6]: 86 % of control

Structure (SMILES): CC#CCOCC(O)CCl (centres undefined)
- T/C (dose: 25.0 mg/kg/injection, schedule: Q01DX009 (ip), vehicle: suspension in saline): 96 % of control
- T/C (dose: 50.0 mg/kg/injection, schedule: Q01DX009 (ip), vehicle: suspension in saline): 105 % of control
- T/C (dose: 100.0 mg/kg/injection, schedule: Q01DX009 (ip), vehicle: suspension in saline): 106 % of control
- T/C (dose: 200.0 mg/kg/injection, schedule: Q01DX009 (ip), vehicle: suspension in saline): 102 % of control

Structure (SMILES): Nc1ncn(C2OC(CO)C(O)C2O)c(=O)n1 (centres undefined)
- T/C (dose: 0.37 mg/kg/injection, schedule: Q01DX009 (ip), vehicle: saline): 106 % of control
- T/C (dose: 0.75 mg/kg/injection, schedule: Q01DX009 (ip), vehicle: saline): 111 % of control
- T/C (dose: 1.5 mg/kg/injection, schedule: Q01DX009 (ip), vehicle: saline): 112 % of control
- T/C (dose: 6.0 mg/kg/injection, schedule: Q01DX009 (ip), vehicle: saline): 114 % of control
- T/C [7]: 105 % of control
- T/C (dose: 12.0 mg/kg/injection, schedule: Q01DX009 (ip), vehicle: saline): 112 % of control
- T/C [8]: 112 % of control
- T/C [9]: 117 % of control and 119 % of control
- T/C [10]: 116 % of control and 117 % of control (2×)
- T/C [11]: 153 % of control

Structure (SMILES): CCC(C)n1ncc2c(N(C)C)ncnc21 (centres undefined)
- T/C (dose: 3.12 mg/kg/injection, schedule: Q01DX009 (ip), vehicle: saline): 98 % of control
- T/C [7]: 95 % of control
- T/C [8]: 95 % of control

Structure (SMILES): Nc1c(Cl)[nH]cnc1=S
- T/C [9]: 89 % of control
- T/C [10]: 105 % of control
- T/C [12]: 88 % of control and 91 % of control

Structure (SMILES): C=C1C(O)C2(O)OCC34C(CC5C(C)=CC(=O)C(O)C5(C)C23)OC(=O)C(OC(=O)C/C=C(\C)CCCCC)C14 (centres undefined)
- T/C (dose: 4.0 mg/kg/injection, schedule: Q01DX009 (ip), vehicle: saline + alcohol): 187 % of control
- T/C (dose: 4.8 mg/kg/injection, schedule: Q01DX009 (ip), vehicle: saline + Tween-80 + alcohol): 156 % of control
- T/C (dose: 8.0 mg/kg/injection, schedule: Q01DX009 (ip), vehicle: saline + Tween-80 + alcohol): 154 % of control
- T/C (dose: 8.0 mg/kg/injection, schedule: Q01DX009 (ip), vehicle: saline + alcohol): 187 % of control

Structure (SMILES): CN(C)CCC(C#N)(CCC1CCCCC1)c1ccccc1 (centres undefined)
- T/C (dose: 10.0 mg/kg/injection, schedule: Q01DX009 (ip), vehicle: saline): 95 % of control
- T/C (dose: 20.0 mg/kg/injection, schedule: Q01DX009 (ip), vehicle: saline): 95 % of control
- T/C (dose: 40.0 mg/kg/injection, schedule: Q01DX009 (ip), vehicle: saline): 92 % of control

Structure (SMILES): CC(=O)OC1C2CCC3C(C)(O)C4CC(O)C(C)(C)C4(O)C(O)CC13CC2(C)O (centres undefined)
- T/C (dose: 0.25 mg/kg/injection, schedule: Q01DX009 (ip), vehicle: Klucel (hydroxypropylcellulose) (HPC)): 111 % of control
- T/C (dose: 0.5 mg/kg/injection, schedule: Q01DX009 (ip), vehicle: Klucel (hydroxypropylcellulose) (HPC)): 100 % of control
- T/C (dose: 1.0 mg/kg/injection, schedule: Q01DX009 (ip), vehicle: Klucel (hydroxypropylcellulose) (HPC)): 121 % of control

Structure (SMILES): COC(=O)C(NC(=O)C(NC(=O)OCc1ccccc1)C(C)O)C(C)C (stereo not drawn) (Cbz-Thr-Val-OMe; configuration not given here)
- T/C [4]: 94 % of control
- T/C [13]: 93 % of control
- T/C [14]: 108 % of control

Structure (SMILES): NC(=O)/C=C/C(N)=O
- T/C [15]: 113 % of control
- T/C (dose: 25.0 mg/kg/injection, schedule: Q01DX009 (ip), vehicle: saline with Tween-80): 109 % of control
- T/C [5]: 89 % of control

Structure (SMILES): NCC(=O)N1CCCC1C(=O)NCC(=O)NCC(=O)O (centres undefined) (HELM PEPTIDE1{G.[O=C(C1CCCN1[*:1])[*:2]].G.G}$$$$V2.0)
- T/C [10]: 92 % of control
- T/C [12]: 100 % of control
- T/C [11]: 95 % of control

Structure (SMILES): O=C(NC(Cc1cccc(F)c1)C(=O)O)c1ccccc1 (centres undefined)
- T/C (dose: 6.25 mg/kg/injection, schedule: Q01DX009 (ip), vehicle: other): 104 % of control
- T/C (dose: 12.5 mg/kg/injection, schedule: Q01DX009 (ip), vehicle: other): 110 % of control
- T/C (dose: 25.0 mg/kg/injection, schedule: Q01DX009 (ip), vehicle: other): 99 % of control
- T/C (dose: 50.0 mg/kg/injection, schedule: Q01DX009 (ip), vehicle: other): 88 % of control

Structure (SMILES): O=C(O)C1(NO)CCCCC1
- T/C [1]: 103 % of control and 105 % of control
- T/C [2]: 111 % of control and 98 % of control
- T/C [3]: 111 % of control and 105 % of control
- T/C [4]: 110 % of control and 107 % of control
- T/C [13]: 103 % of control and 108 % of control
- T/C [14]: 113 % of control and 106 % of control

Structure (SMILES): NC(=O)NC(CC(=O)O)C(=O)O (centres undefined)
- T/C [5]: 113 % of control
- T/C [6]: 95 % of control
- T/C (dose: 200.0 mg/kg/injection, schedule: Q01DX009 (ip), vehicle: saline with Tween-80): 102 % of control

Structure (SMILES): C1CC[N-]CC1.[Cl][Pt+2][Cl].[NH-]C1CC1
- T/C (dose: 1.56 mg/kg/injection, schedule: Q01DX009 (ip), vehicle: saline with Tween-80): 117 % of control
- T/C (dose: 3.12 mg/kg/injection, schedule: Q01DX009 (ip), vehicle: water): 106 % of control
- T/C [16]: 116 % of control
- T/C [15]: 159 % of control

Structure (SMILES): COc1ccc(OC)c(Cc2cnc3nc(N)nc(N)c3c2C)c1
- T/C [16]: 106 % of control
- T/C (dose: 12.5 mg/kg/injection, schedule: Q01DX009 (ip), vehicle: water): 104 % of control
- T/C (dose: 25.0 mg/kg/injection, schedule: Q01DX009 (ip), vehicle: water): 99 % of control
- T/C (dose: 50.0 mg/kg/injection, schedule: Q01DX009 (ip), vehicle: water): 93 % of control
